Assay [1] deals with T1, Acyl-CoA: Cholesterol Acyltransferase (ACAT) (Rattus norvegicus, UniProt Q7TQM4).
T1 construct: centrifuged at 105,000×g for 1 hour to pellet the microsomes; from tissue; host or cells: liver microsomes of fasted male Sprague Dawley rats
T1 sequence (Q7TQM4 1-524): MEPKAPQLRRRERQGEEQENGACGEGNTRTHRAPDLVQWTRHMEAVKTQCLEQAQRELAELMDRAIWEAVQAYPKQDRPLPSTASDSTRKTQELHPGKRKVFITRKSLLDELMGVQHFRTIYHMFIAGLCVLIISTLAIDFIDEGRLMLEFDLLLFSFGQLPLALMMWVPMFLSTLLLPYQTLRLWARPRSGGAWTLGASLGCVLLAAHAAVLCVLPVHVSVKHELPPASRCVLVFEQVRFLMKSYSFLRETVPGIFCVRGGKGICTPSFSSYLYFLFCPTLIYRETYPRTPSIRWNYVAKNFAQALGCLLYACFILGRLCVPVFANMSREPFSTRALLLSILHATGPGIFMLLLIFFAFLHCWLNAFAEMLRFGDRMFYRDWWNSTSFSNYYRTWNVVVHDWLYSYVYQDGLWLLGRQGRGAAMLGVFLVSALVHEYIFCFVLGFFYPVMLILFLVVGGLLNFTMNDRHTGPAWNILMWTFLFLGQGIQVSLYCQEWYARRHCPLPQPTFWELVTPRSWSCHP
The assay is described as follows: Inhibition of Acyl-CoA:Cholesterol Acyltransferase (ACAT) in hepatic microsomes. It counts as biochemical, Sprague Dawley rat. The procedure: A. Assay of the Inhibition of Acyl-CoA: Cholesterol Acyltransferase (ACAT) in Hepatic Microsomes
The ability of the compounds to inhibit ACAT, the enzyme responsible for the intracellular synthesis of cholesteryl esters, was tested as follows. Male Sprague Dawley rates weighing 150-300 g were fed rat chow ad libitum. The animals were fasted for twenty-four hours prior to being sacrificed by decapitation. The livers were perfused in situ with 50 ml of cold 0.25M sucrose, excised and homogenized in three volumes of 0.1M phosphate buffer, pH 7.4, that contained 0.5 mM EDTA (ethylenediaminetetraacetic acid), 1.0 mM glutathione, 0.25M sucrose and 20 mM leupeptin. Microsomes were obtained by differential centrifugation; the supernatant from an initial spin at 15,000×g for 15 minutes was centrifuged at 105,000×g for 1 hour to pellet the microsomes. The microsomes were suspended in homogenization buffer, reisolated by centrifugation, and stored at -70° C. Microsomes were used within one month of preparation.
The control assay in a final volume of 200 μl consisted of 200 μg of microsomal protein, 75 μM ^14 C-oleoyl-CoA (10,000 dpm/nmol) in 0.1M phosphate, pH 7.4, that contained 1 mM glutathione. Compounds were added in 5-10 μl of DMSO (dimethyl sulfoxide or ethanol) and additional controls were run with DMSO or ethanol only. All components, except the oleoyl-CoA, were preincubated for 15 min. at 37° C. prior to the initiation of the reaction by the addition of oleoyl CoA. The assay was terminated after 10 min by the addition of 4 ml of chloroform:methanol (2:1, v/v). 20,000 dpm of ^3 H-cholesteryl oleate and 10 μg of unlabeled cholesteryl oleate and oleic acid were added as an internal standard and carrier, respectively. After allowing 10 min. for lipid extraction, 0.8 ml of deionized water was added to separate the solution into two phases. The lower chloroform phase was collected, dried under nitrogen and resuspended in 100 μl of chloroform. The sample containing the neutral lipids was spotted onto a Gelman ITLC-SA polysilicic acid gel-impregnated sheet, which was developed using a hexane: diethyl ether: acetic acid (170:30:1 v/v/v) mobile phase. The lipids were visualized by their interaction with iodine vapor and the cholesteryl ester spot was scraped into a scintillation vial and counted. The specific activity of ACAT in the control incubation averaged 260 pmol/min/mg microsomal protein. The inhibition of ACAT activity by the compounds is shown in Table 7; the data are expressed as the concentration at which ACAT activity is inhibited by 50% (IC50).

The subject of assay [2] is murine macrophage-like cell line J744.A1. The assay is described as follows: Inhibition of cholesterol esterification in mammalian cells (macrophage). It counts as cell-based. Conditions: Mus musculus; J744.A1 macrophage-like cells loaded with ac-LDL, 14C oleic acid. The protocol:
B. Assay of the Inhibition of Cholesterol Esterification in Mammalian Cells The esterification of cholesterol was determined in the murine macrophage-like cell line J744.A1. Cells were seeded in 35 mm wells at a density of 300,000 cells per well in 2 mls of Dulbecco's Modified Eagle Medium (DMEM) supplemented with 10% fetal bovine serum (FBS). Cells were incubated at 37° C. in an atmosphere of 5% CO2 and 93% humidity. After 24 hours the media was changed to 0.68 mls 10% FBS-DMEM containing 34 μg of acetylated human low density lipoprotein (ac-LDL) to increase the intracellular concentration of cholesterol and promote esterification. At 41 hours, various inhibitors were added to the cells in DMSO (10 μl/ml maximum). At 43 hours, the cells were pulsed with 0.1 mM ^14 C oleic acid (10,000 dpm/nmol) complexed with BSA (bovine serum albumin) to follow cholesterol ester formation. The experiment was terminated at 45 hours by washing the monolayers 3 times with 3 ml of Tris-buffered saline at 4° C. The lipids were extracted by incubating the monolayers with 1.5 ml of hexane: isopropanol (3:2, v/v) for 30 min. under gentle agitation. During this period, 10,000 dpm ^3 H-cholesteryl linoleate and 10 μg of cholesteryl oleate were added as an internal standard and carrier respectively. The organic solvent was remoted and the cells were washed with an additional 1.0 ml of hexane: isopropanol which was combined with the original extract. The cells were allowed to dry overnight, digested with 1.5 ml of 0.2 N sodium hydroxide for 1 hour and an aliquot of the solubilized protein used for protein determination using the Lowry method. […] Individual lipids were visualized with iodine and the cholesteryl ester spot cut out and transferred to scintillation vials to determine the amount of radioactivity.

[3] abbreviates: rat hepatic microsomes, 14C-oleoyl-CoA, 37° C., pH 7.4, read-out: In Vitro ACAT IC50.

The source of these data is US5428041A, “Antihypercholesterolemic bis-trifluoromethyl-substituted imidazolines and derivatives thereof” (The Du Pont Merck Pharmaceutical Company, priority 1992, dated 1995).

Molecules are shown by their SMILES. Structures can show the parent of a compound that is named as a salt. Where two headings read alike, the source gives them in different places.

On to `CN(C(=O)C12CCC(C)(C(=O)O1)C2(C)C)C1N(C)C(c2ccc(F)cc2)=NC1(C(F)(F)F)C(F)(F)F` (single isomer, unassigned) [Example 25], for which the results for the IC50 in assay [1] (setting [3]) and in assay [2] were 41 µM and 98 µM, respectively. The matching figures for `CN1C(c2ccc(F)cc2)=NC(C(F)(F)F)(C(F)(F)F)C1=NC(=O)c1ccc(F)cc1` [Example 2, N-[4,4-bis(trifluoromethyl)-2-(4-fluorophenyl)-4,5-dihydro-1-methyl-1H-imidazol-5-ylidene]-4-fluoro-benzamide]: 20 µM and > 100 µM. Consider `Cc1ccc(C(=O)N=C2N(C)C(c3ccc(C)cc3)=NC2(C(F)(F)F)C(F)(F)F)cc1` [Example 5], for which the IC50 was 20 µM in assay [1] (setting [3]) and 62 µM in assay [2]. As for `CN1C(c2ccc(F)cc2)=NC(C(F)(F)F)(C(F)(F)F)C1NC(=O)c1ccc(F)cc1` (stereo not drawn) [Example 10, N-[4,4-bis-(trifluoromethyl)-2-(4-fluorophenyl)-4,5-dihydro-1-methyl-1H-imidazol-5-yl]-4-fluorobenzamide], the concentration for half-maximal inhibition (IC50) in assay [1] (setting [3]) was found to be 41 µM. With `CN(C(=O)c1ccc(F)cc1)C1N(C)C(c2ccc(F)cc2)=NC1(C(F)(F)F)C(F)(F)F` (stereo not drawn) [Example 10A, N-[4,4-bis(trifluoromethyl)2-(4-fluorophenyl)-4,5-dihydro-1-methyl-1H-imidazol-5-yl]-4-fluorophenyl-N-methylbenzamide], the half-maximal inhibitory concentration (IC50) in assay [1] (setting [3]) came out at 22 µM; in assay [2] it was 105 µM.

As for `CCCCOc1ccc(C(=O)N(C)C2N(C)C(c3ccc(F)cc3)=NC2(C(F)(F)F)C(F)(F)F)cc1` (stereo not drawn) [Example 11, N-[4,4-bis(trifluoromethyl)-2-(4-fluorophenyl)-4,5-dihydro-1-methyl-1H-imidazol-5-yl]-4-butoxy-N-methylbenzamide], the IC50 in assay [1] (setting [3]) is 2 µM; in assay [2] it was 14 µM. On to `COc1ccc(C(=O)N(C)C2N(C)C(c3ccc(F)cc3)=NC2(C(F)(F)F)C(F)(F)F)cc1` (stereo not drawn) [Example 12, N-[4,4-bis(trifluoromethyl)-2-(4-fluorophenyl)-4,5-dihydro-1-methyl-1H-imidazol-5-yl]-4-methoxy-N-methylbenzamide], for which the IC50 in assay [1] (setting [3]) was found to be 6 µM.

As for `CN(C(=O)c1ccc(C(C)(C)C)cc1)C1N(C)C(c2ccc(F)cc2)=NC1(C(F)(F)F)C(F)(F)F` (stereo not drawn) [Example 13, N-[4,4-bis(trifluoromethyl)-2-(4-fluorophenyl)-4,5-dihydro-1-methyl-1H-imidazol-5-yl]-4-(1,1-dimethylethyl)-N-methylbenzamide], the IC50 turned out to be 4 µM in assay [1] (setting [3]) and 18 µM in assay [2]. `CN(C(=O)c1ccc([N+](=O)[O-])cc1)C1N(C)C(c2ccc(F)cc2)=NC1(C(F)(F)F)C(F)(F)F` (stereo not drawn) [Example 14, N-[4,4-bis(trifluoromethyl)-2-(4-fluorophenyl)-4,5-dihydro-1-methyl-1H-imidazol-5-yl]-N-methyl-4-nitrobenzamide]: the IC50 in assay [1] (setting [3]) amounted to 8 µM; in assay [2] it was 18 µM.

Regarding `CN(C(=O)c1ccc(-c2ccccc2)cc1)C1N(C)C(c2ccc(F)cc2)=NC1(C(F)(F)F)C(F)(F)F` (stereo not drawn) [Example 15, N-[4,4-bis(trifluoromethyl)-2-(4-fluorophenyl)-4,5-dihydro-1-methyl-1 H-imidazol-5-yl]-N-methyl-[1,1'-biphenyl]-4-carboxamide], the IC50 is 17 µM in assay [1] (setting [3]) and 11 µM in assay [2]. On to `CCCCCCC(=O)N(C)C1N(C)C(c2ccc(F)cc2)=NC1(C(F)(F)F)C(F)(F)F` (stereo not drawn) [Example 16, N-[4,4-bis(trifluoromethyl)-2-(4-fluorophenyl)-4,5-dihydro-1-methyl-1H-imidazol-5-yl]-N-methylheptanamide hydrochloride], for which the IC50 in assay [1] (setting [3]) turned out to be 2 µM; in assay [2] it was 17 µM. With `CCCCCCCCCCCC(=O)N(C)C1N(C)C(c2ccc(F)cc2)=NC1(C(F)(F)F)C(F)(F)F` (stereo not drawn) [Example 17], the IC50 in assay [1] (setting [3]) is 6 µM. The same measure, in the same setting: as for `CC(C)CCCC(=O)N(C)C1N(C)C(c2ccc(F)cc2)=NC1(C(F)(F)F)C(F)(F)F` (stereo not drawn) [Example 18, N-[4,4-bis(trifluoromethyl)-2-(4-fluorophenyl)-4,5-dihydro-1-methyl-1H-imidazol-5-yl]-N,5-dimethyl-hexanamide hydrochloride], the figure is 4 µM; as for `CN(C(=O)Nc1ccc(F)cc1F)C1N(C)C(c2ccc(F)cc2)=NC1(C(F)(F)F)C(F)(F)F` (stereo not drawn) [Example 28, N-[4,4-bis(trifluoromethyl)-2-(4-fluorophenyl)-4,5-dihydro-1-methyl-1H-imidazol-5-yl]-N'-2,4-difluorophenyl-N-methylurea], 22 µM; as for `CCCCCCCCNC(=O)N(C)C1N(C)C(c2ccc(F)cc2)=NC1(C(F)(F)F)C(F)(F)F` (stereo not drawn) [Example 29, N-[4,4-bis(trifluoromethyl)-2-(4-fluorophenyl)-4,5-dihydro-1-methyl-1H-imidazol-5-yl]-N'-octyl-N-methylurea hydrochloride], 16 µM. `CCOc1ccc(C(=O)NC2N(C)C(c3ccc(F)cc3)=NC2(C(F)(F)F)C(F)(F)F)cc1` (stereo not drawn) [Example 30, N-[4,4-bis(trifluoromethyl)-2-(4-fluorophenyl)-4,5-dihydro-1-methyl-1H-imidazol-5-yl]-4-ethoxybenzamide]: the IC50 in assay [1] (setting [3]) was 6 µM. For `COc1ccc(C2=NC(C(F)(F)F)(C(F)(F)F)C(N(C)C(=O)CCCC(C)C)N2C)cc1` (stereo not drawn) [Example 34, N-[4,4-bis(trifluoromethyl)-2-(4-methoxyphenyl)-4,5-dihydro-1-methyl-1H-imidazol-5-yl]-N,5-dimethylhexanamide hydrochloride], the IC50 in assay [1] (setting [3]) was 9 µM.

Consider `CN1C(=CC(=O)c2ccc(F)cc2)C(C(F)(F)F)(C(F)(F)F)N=C1c1ccc(F)cc1` [Example 96B, 2-[4,4-bis(trifluoromethyl)-2-(4-fluorophenyl)-4,5-dihydro-1-methyl-1H-imidazol-5-ylidene]-1-(4-fluorophenyl)-1-ethanone], for which, in assay [1] (setting [3]), the IC50 stood at 19 µM.

In assay [1], `COc1ccc(OC(=O)N=C2N(C)C(c3ccc(OC)cc3)=NC2(C(F)(F)F)C(F)(F)F)cc1` [Example 121] had an IC50 of 64 µM.

In assay [1], `Cc1ccc(OC(=O)N=C2N(C)C(c3ccc(C)cc3)=NC2(C(F)(F)F)C(F)(F)F)cc1` [Example 122] registered an IC50 of 49 µM. For the compound `CN1C(=O)C(C(F)(F)F)(C(F)(F)F)N=C1c1ccc(F)cc1` [Example 123, 2-(4-fluorophenyl)-3,5-dihydro-3-methyl-4,4-bis(trifluoromethyl)-4H-imidazol-4-one], the IC50 in assay [1] (setting [3]) was > 100 µM.

For orientation: IC50 means the point on the concentration scale where inhibition reaches its midpoint.
